The values below come from ChEMBL document CHEMBL5346980 (J Med Chem, 2023).

Assay [1] concerns the target Carbonic anhydrase 1 (Homo sapiens, UniProt P00915). Description: Inhibition of recombinant human carbonic anhydrase 1 incubated for 15 mins prior to testing by phenol red based stopped-flow CO2 hydration assay.
For assay [2], the target named is Carbonic anhydrase 2 (Homo sapiens, UniProt P00918). Description: Inhibition of recombinant human carbonic anhydrase 2 incubated for 15 mins prior to testing by phenol red based stopped-flow CO2 hydration assay.
Assay [3] deals with T1, Vascular endothelial growth factor receptor 2 (Homo sapiens, UniProt P35968).
T1 sequence (P35968 whole entry): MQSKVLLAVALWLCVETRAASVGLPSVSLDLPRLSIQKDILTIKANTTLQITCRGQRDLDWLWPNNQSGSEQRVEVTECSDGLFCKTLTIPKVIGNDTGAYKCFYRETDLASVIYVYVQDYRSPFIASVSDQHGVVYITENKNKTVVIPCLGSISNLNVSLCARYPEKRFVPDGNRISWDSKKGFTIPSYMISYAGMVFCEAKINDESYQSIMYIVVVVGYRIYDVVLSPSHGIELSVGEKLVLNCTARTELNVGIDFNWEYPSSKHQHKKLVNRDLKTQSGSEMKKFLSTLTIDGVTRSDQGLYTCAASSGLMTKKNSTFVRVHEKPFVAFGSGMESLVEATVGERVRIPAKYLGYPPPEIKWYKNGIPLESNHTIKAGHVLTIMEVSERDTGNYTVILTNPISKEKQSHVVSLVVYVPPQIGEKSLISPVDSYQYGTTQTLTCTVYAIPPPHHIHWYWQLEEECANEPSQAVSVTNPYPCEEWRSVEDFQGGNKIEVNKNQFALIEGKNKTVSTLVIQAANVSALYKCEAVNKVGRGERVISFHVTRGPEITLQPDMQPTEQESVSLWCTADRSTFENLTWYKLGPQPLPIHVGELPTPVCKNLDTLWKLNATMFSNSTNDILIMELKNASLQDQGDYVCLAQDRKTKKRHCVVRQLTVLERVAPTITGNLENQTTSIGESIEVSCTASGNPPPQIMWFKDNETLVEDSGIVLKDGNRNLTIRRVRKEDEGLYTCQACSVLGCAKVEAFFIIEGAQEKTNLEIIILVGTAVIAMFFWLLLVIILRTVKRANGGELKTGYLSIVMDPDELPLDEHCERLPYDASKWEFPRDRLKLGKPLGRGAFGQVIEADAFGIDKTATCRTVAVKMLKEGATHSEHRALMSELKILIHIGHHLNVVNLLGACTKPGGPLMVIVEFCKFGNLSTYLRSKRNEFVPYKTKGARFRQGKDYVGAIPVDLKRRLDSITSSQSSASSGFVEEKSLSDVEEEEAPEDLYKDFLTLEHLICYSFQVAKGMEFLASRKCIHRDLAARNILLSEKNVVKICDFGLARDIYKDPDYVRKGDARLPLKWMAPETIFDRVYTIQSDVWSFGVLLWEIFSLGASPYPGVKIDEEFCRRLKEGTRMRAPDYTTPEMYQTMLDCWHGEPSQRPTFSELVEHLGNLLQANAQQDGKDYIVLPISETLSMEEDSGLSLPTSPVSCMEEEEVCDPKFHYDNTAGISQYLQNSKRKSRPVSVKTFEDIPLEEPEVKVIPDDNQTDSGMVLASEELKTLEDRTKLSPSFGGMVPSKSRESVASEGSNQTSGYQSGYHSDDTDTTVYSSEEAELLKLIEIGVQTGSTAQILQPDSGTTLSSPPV
Description: Inhibition of human VEGFR-2 by ELISA
Assay [4] concerns HepG2. Description: cells. Particulars: Homo sapiens.
Description: Cytotoxicity against human HepG2 cells by MTT assay
For assay [5], the target named is T1, Vascular endothelial growth factor receptor 2. The source holds these as a separate data set.

SMILES strings stand for the structures. Some results are limits rather than exact numbers.

Sequence of Carbonic anhydrase 1 (P00915 whole entry): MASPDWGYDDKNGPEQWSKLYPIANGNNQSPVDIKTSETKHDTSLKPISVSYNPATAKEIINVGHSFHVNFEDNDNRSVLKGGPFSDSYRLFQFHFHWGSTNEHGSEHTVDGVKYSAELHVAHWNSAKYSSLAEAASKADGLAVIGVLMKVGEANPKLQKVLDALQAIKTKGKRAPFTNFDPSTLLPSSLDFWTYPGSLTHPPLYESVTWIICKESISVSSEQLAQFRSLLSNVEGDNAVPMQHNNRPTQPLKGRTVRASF

Broadly, the Ki is a measure of affinity in units of concentration, obtained from inhibition or displacement. `COc1cccc(-n2nc(NC(=O)Nc3ccc(C)c(S(N)(=O)=O)c3)nc2-c2ccccc2)c1`: the Ki in assay [1] is more than 10000 nM; in assay [2], 230 nM.

Consider `COc1ccc(-n2nc(NC(=O)NCCc3ccc(S(N)(=O)=O)cc3)nc2-c2ccccc2)cc1`, for which the Ki in assay [1] stood at 82.7 nM.

Consider `COc1cccc(-n2nc(NC(=O)Nc3ccccc3S(N)(=O)=O)nc2-c2ccccc2)c1`, for which the Ki is more than 10000 nM in assay [1] and 158 nM in assay [2].

Take `NS(=O)(=O)c1cccc(NC(=O)Nc2nc(-c3ccccc3)n(-c3cccc(Cl)c3)n2)c1`: the inhibitory constant (Ki) in assay [1] was determined as 5820 nM; in assay [2], 101 nM.

As to `COc1cccc(-n2nc(NC(=O)Nc3cccc(S(N)(=O)=O)c3)nc2-c2ccccc2)c1`, the Ki was found to be 9430 nM in assay [1] and 91.5 nM in assay [2].

`NS(=O)(=O)c1ccccc1NC(=O)Nc1nc(-c2ccccc2)n(-c2ccc(F)cc2)n1`: the Ki was more than 10000 nM in assay [1] and 384 nM in assay [2].

For `NS(=O)(=O)c1ccc(CCNC(=O)Nc2nc(-c3ccccc3)n(-c3ccc(Cl)cc3)n2)cc1`, the Ki in assay [2] is 41.7 nM.

`COc1ccc(-n2nc(NC(=O)Nc3ccc(S(N)(=O)=O)cc3)nc2-c2ccccc2)cc1`: the Ki was 3870 nM in assay [1] and 29.4 nM in assay [2].

For `NS(=O)(=O)c1ccc(NC(=O)Nc2nc(-c3ccccc3)n(-c3ccc(F)cc3)n2)cc1`, the inhibitory constant (Ki) was 2250 nM in assay [1] and 25.2 nM in assay [2].

With `NS(=O)(=O)c1cccc(NC(=O)Nc2nc(-c3ccccc3)n(-c3ccc(F)cc3)n2)c1`, the Ki in assay [1] stood at 4900 nM; in assay [2], 99 nM.

For the compound `COc1ccc(-n2nc(NC(=O)Nc3cccc(S(N)(=O)=O)c3)nc2-c2ccccc2)cc1OC`, the inhibitory constant (Ki) in assay [1] was more than 10000 nM; in assay [2] it was 285 nM.

Consider `COc1cccc(-n2nc(NC(=O)Nc3ccc(S(N)(=O)=O)cc3)nc2-c2ccccc2)c1`, for which, in assay [2], the inhibition constant Ki was determined as 13.6 nM.

For orientation: IC50 means the point on the concentration scale where inhibition reaches its midpoint. In the case of `COc1cc(-c2nc(C(=O)Nc3ccccc3)nn2-c2ccc(F)c(Cl)c2)cc(OC)c1OC`, the IC50 in assay [3] came out at 19.8 nM; in assay [4] it was 240 nM.

In the case of `COc1ccc(-n2nc(NC(=O)Nc3ccccc3S(N)(=O)=O)nc2-c2ccccc2)cc1OC`, the inhibition constant Ki in assay [1] is more than 10000 nM; in assay [2], 112 nM.

For the compound `COc1ccc(-n2nc(NC(=O)Nc3cccc(S(N)(=O)=O)c3)nc2-c2ccccc2)cc1`, the figures for the inhibition constant (Ki) in assay [1] and in assay [2] were 4190 nM and 56 nM, respectively. This compound had an IC50 in assay [5] of 183 nM.

As to `Cc1ccc(NC(=O)Nc2nc(-c3ccccc3)n(-c3cccc(Cl)c3)n2)cc1S(N)(=O)=O`, the Ki in assay [1] is more than 10000 nM; in assay [2] it was 91.4 nM. The 50% inhibitory concentration (IC50) in assay [5] came out at 96.2 nM.

With `COc1cccc(-n2nc(NC(=O)NCCc3ccc(S(N)(=O)=O)cc3)nc2-c2ccccc2)c1`, the Ki in assay [1] worked out at 104 nM; in assay [2] it was 35.8 nM.

Take `NS(=O)(=O)c1ccc(NC(=O)Nc2nc(-c3ccccc3)n(-c3ccc(Cl)cc3)n2)cc1`: the Ki in assay [2] came out at 84.6 nM. In assay [5], this compound showed a 50% inhibitory concentration (IC50) of 318 nM.

Consider `NS(=O)(=O)c1ccc(CCNC(=O)Nc2nc(-c3ccccc3)n(-c3cccc(Cl)c3)n2)cc1`, for which the Ki was determined as 61.8 nM in assay [1] and 20.1 nM in assay [2].

On to `NS(=O)(=O)c1cccc(NC(=O)Nc2nc(-c3ccccc3)n(-c3ccc(Cl)cc3)n2)c1`, for which the inhibition constant Ki in assay [1] was found to be 8260 nM.

On to `Cc1ccc(NC(=O)Nc2nc(-c3ccccc3)n(-c3ccc(Cl)cc3)n2)cc1S(N)(=O)=O`, for which the Ki in assay [1] was more than 10000 nM; in assay [2], 127 nM. The compound also returned a half-maximal inhibitory concentration (IC50) in assay [5] of 541 nM.

Regarding `COc1ccc(-n2nc(NC(=O)Nc3ccc(C)c(S(N)(=O)=O)c3)nc2-c2ccccc2)cc1`, the inhibitory constant (Ki) in assay [2] stood at 72.4 nM. In assay [5], this compound displayed a half-inhibitory concentration (IC50) of 717 nM.

Consider `NS(=O)(=O)c1ccc(NC(=O)Nc2nc(-c3ccccc3)n(-c3cccc(Cl)c3)n2)cc1`, for which the Ki in assay [1] worked out at 2690 nM. Also, the IC50 in assay [5] is more than 1000 nM.

Take `NS(=O)(=O)c1ccccc1NC(=O)Nc1nc(-c2ccccc2)n(-c2cccc(Cl)c2)n1`: the inhibition constant Ki in assay [1] is more than 10000 nM.

Consider `NS(=O)(=O)c1ccc(CCNC(=O)Nc2nc(-c3ccccc3)n(-c3ccc(F)cc3)n2)cc1`, for which the Ki in assay [1] worked out at 39.8 nM; in assay [2], 3.4 nM.

`COc1ccc(-n2nc(NC(=O)NCCc3ccc(S(N)(=O)=O)cc3)nc2-c2ccccc2)cc1OC`: the Ki in assay [1] came out at 153 nM; in assay [2], 16.4 nM.

With `COc1ccc(-n2nc(NC(=O)Nc3ccc(S(N)(=O)=O)cc3)nc2-c2ccccc2)cc1OC`, the inhibition constant (Ki) in assay [2] came to 16.9 nM.

In the case of `Cc1ccc(NC(=O)Nc2nc(-c3ccccc3)n(-c3ccc(F)cc3)n2)cc1S(N)(=O)=O`, the inhibition constant Ki in assay [1] was more than 10000 nM; in assay [2], 170 nM.

As for `COc1ccc(-n2nc(NC(=O)Nc3ccccc3S(N)(=O)=O)nc2-c2ccccc2)cc1`, the inhibition constant Ki in assay [1] was more than 10000 nM; in assay [2] it was 158 nM.

In the case of `NS(=O)(=O)c1ccccc1NC(=O)Nc1nc(-c2ccccc2)n(-c2ccc(Cl)cc2)n1`, the inhibition constant (Ki) in assay [1] was more than 10000 nM; in assay [2], 241 nM. In assay [5], this compound yielded a concentration for half-maximal inhibition (IC50) of 271 nM.

Regarding `COc1ccc(-n2nc(NC(=O)Nc3ccc(C)c(S(N)(=O)=O)c3)nc2-c2ccccc2)cc1OC`, the Ki in assay [2] was 547 nM.
